Reference: publication doi:10.1101/2025.03.13.643086, “Granzyme-targeting quenched activity-based probes for assessing tumor response to immunotherapy” (bioRxiv, 2025)
Non-standard residues stand in square brackets, D forms with d. Residues, ends and D or L forms follow the SMILES beside them. *: point of attachment. Abu(4-SO3H) = N[C@@H](CCS(=O)(=O)O)C(=O)O; ACC = NC(=O)Cc1cc(=O)oc2cc(N*)ccc12; Cya = N[C@@H](CS(=O)(=O)O)C(=O)O

How the values were obtained:
Casp-8 = Casp-8 (Homo sapiens, UniProt Q14790); assay: Enzyme cleavage assay / Michaelis-Menten kinetics of fluorogenic substrates with Casp-8; type: biochemical; conditions: 100 μM substrate, 5 nM Casp-8, 1 h, V0 normalized to 1
Protocol: (§1) Figure 1. Isosteric substitution of carboxylic acid at P1 with sulfonic acid enhances selectivity for GzmB over Casp-8. (A) Chemical structures of tetrapeptide fluorogenic substrates 1-4. (B) Enzyme cleavage assay. 100 μM of each substrate was incubated with either recombinant human active GzmB (10 nM) or Casp-8 (5 nM) and fluorescence was measured at Ex/Em: 380/460 nm for 1 h. The initial velocity (V0) of each substrate was normalized to that of the control substrate Ac-IEPD-ACC (1). […] (C) Kinetic measurement. The Michaelis-Menten plot and kinetic parameters were generated with varying concentrations of each substrate 1 and 2 incubated with recombinant human active GzmB (10 nM) and Casp-8 (5 nM). […] (D) Chemical structures of inhibitors 5-7. (E) GzmB inhibition. Recombinant human active GzmB (2 U/μL) was incubated with varying concentrations of each inhibitor and the residual activity of GzmB was measured by the cleavage of Ac-IEPD-AMC fluorogenic substrate and normalized to DMSO control.
(§2) All kinetic experiments were performed on a spectrofluorometer (Biotek cytation5 or Synergy|Mx microplate reader) and analyzed using Microsoft Excel and GraphPad Prism. […]
(§3) (v/v) Tween-20, pH 7.5. Assay buffers were prepared at room temperature while the kinetic experiments were performed at 37 °C. Data are presented as the mean with standard deviation (at least two independent experiments). […]
(§4) (#BML-SE238-5000) and diluted in assay buffer. Conditions for individual experiments are […]
(§5) Figure 1B-C: 10 nM of active GzmB or 5 nM of Casp-8 were treated with different substrates (compounds 1-4) and recorded fluorescence (Ex/Em: 380/460 nm) for 1 h at 37 °C. To determine Michaelis-Menten constants, cleavage assays with 10 nM of GzmB or 5 nM of Casp-8 were performed with different concentrations of substrates 1 and 2. […]
Working concentrations were prepared by further diluting in the assay buffer before use. […] In-gel fluorescence images were acquired on a Typhoon FLA9500 instrument while western blot and Coomassie staining images were acquired on an AMHERST ImageQuant 800 instrument.

[1] = target: recombinant human active GzmB (Homo sapiens, UniProt P10144); assay: Enzyme cleavage assay / Michaelis-Menten kinetics of fluorogenic substrates with GzmB; type: biochemical; conditions: 10 nM GzmB
Protocol: as §1, §2
(v/v) Tween-20, pH 7.5. Assay buffers were prepared at room temperature while the kinetic experiments were performed at 37 °C. Data are presented as the mean with standard deviation (at least two independent experiments). For kinetic experiments, pro-GzmB (0.22 mg/mL) was activated with mouse cathepsin C (22 µg/mL in 50 mM MES, 50 mM NaCl, pH 5.5) and diluted in assay buffer. Alternatively, active GzmB at 100 U/µL was purchased from Enzo Life Sciences (#BML-SE238-5000) and diluted in assay buffer. Conditions for individual experiments are […]
as §5
(§6) Working concentrations were prepared by further diluting in the assay buffer before use. Mouse pro-GzmB (0.474 mg/mL) was also activated with mCatC (52.14 µg/mL in 50 mM MES, 50 mM NaCl, pH 5.5), diluted in assay buffer and stored as 500 nM aliquots at - 80 °C, which were further diluted in assay buffer to make final working concentrations. In-gel fluorescence images were acquired on a Typhoon FLA9500 instrument while western blot and Coomassie staining images were acquired on an AMHERST ImageQuant 800 instrument.

[2] = substrate: CC[C@H](C)[C@H](NC(C)=O)C(=O)N[C@@H](CCC(=O)O)C(=O)N1CCC[C@H]1C(=O)N[C@@H](CC(=O)O)C(=O)Nc1ccc2c(CC(N)=O)cc(=O)oc2c1; assay: Enzyme cleavage assay / Michaelis-Menten kinetics of fluorogenic substrates with Casp-8; type: biochemical, human; conditions: other: 5 nM Casp-8, varying substrate concentrations, 37 °C
Protocol: as §1, §2, §3, §4, §5, §6

[3] = substrate: CC[C@H](C)[C@H](NC(C)=O)C(=O)N[C@@H](CCC(=O)O)C(=O)N1CCC[C@H]1C(=O)N[C@@H](CS(=O)(=O)O)C(=O)Nc1ccc2c(CC(N)=O)cc(=O)oc2c1; assay: as above; type: biochemical, human; conditions: other: 5 nM Casp-8, varying substrate concentrations, 37 °C
Protocol: as §1, §2, §3, §4, §5, §6

[4] = 100 μM substrate, 1 h, V0 normalized to 1

Chain of recombinant human active GzmB (P10144 21-247): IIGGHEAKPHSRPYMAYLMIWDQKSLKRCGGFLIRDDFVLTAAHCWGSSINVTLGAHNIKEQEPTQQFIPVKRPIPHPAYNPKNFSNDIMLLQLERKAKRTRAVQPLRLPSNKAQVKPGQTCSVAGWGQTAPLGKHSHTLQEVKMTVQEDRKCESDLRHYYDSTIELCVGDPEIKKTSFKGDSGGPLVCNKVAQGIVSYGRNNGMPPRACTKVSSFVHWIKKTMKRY

## CC[C@H](C)[C@H](NC(C)=O)C(=O)N[C@@H](CCS(=O)(=O)O)C(=O)N1CCC[C@H]1C(=O)N[C@@H](CC(=O)O)C(=O)Nc1ccc2c(CC(N)=O)cc(=O)oc2c1 [Compound 3] (Ac-I[Abu(4-SO3H)]PD-{ACC})
Casp-8
  cleavage by Casp-8 compared to Ac-IEPD-ACC (1), in words: increased cleavage by Casp-8
[1]; [4]
  cleavage by GzmB compared to Ac-IEPD-ACC (1), in words: reduced cleavage by GzmB

## CC[C@H](C)[C@H](NC(C)=O)C(=O)N[C@@H](CCC(=O)O)C(=O)N1CCC[C@H]1C(=O)N[C@@H](CS(=O)(=O)O)C(=O)Nc1ccc2c(CC(N)=O)cc(=O)oc2c1 [Compound 2, Ac-IEPCya-ACC] (Ac-IEP[Cya]-{ACC})
Casp-8
  cleavage by Casp-8 compared to Ac-IEPD-ACC (1), in words: cleavage by Casp-8 was reduced
[1]
  increase in turnover (kcat) for GzmB compared to Ac-IEPD-ACC (1): 10 fold
[1]; [4]
  cleavage efficiency by GzmB compared to Ac-IEPD-ACC (1): 6 fold

## CC[C@H](C)[C@H](NC(C)=O)C(=O)N[C@@H](CCS(=O)(=O)O)C(=O)N1CCC[C@H]1C(=O)N[C@@H](CS(=O)(=O)O)C(=O)Nc1ccc2c(CC(N)=O)cc(=O)oc2c1 [Compound 4] (Ac-I[Abu(4-SO3H)]P[Cya]-{ACC})
Casp-8
  cleavage by Casp-8 compared to Ac-IEPD-ACC (1), in words: decreasing cross-reactivity with Casp-8
[1]; [4]
  cleavage by GzmB compared to Ac-IEPD-ACC (1), in words: routed for cleavage by GzmB

B1: Casp-8 (Homo sapiens) (protein)
chain 1: SESQTLDKVYQMKSKPRGYCLIINNHNFAKAREKVPKLHSIRDRNGTHLDAGALTTTFEELHFEIKPHDDCTVEQIYEILKIYQLMDHSNMDCFICCILSHGDKGIIYGTDGQEAPIYELTSQFTGLKCPSLAGKPKVFFIQACQGDNYQKGIPVETD
chain 2: LSSPQTRYIPDEADFLLGMATVNNCVSYRNPAEGTWYIQSLCQSLRERCPRGDDILTILTEVNYEVSNKDDKKNMGKQMPQPTFTLRKKLVFPSD
[2]
  Km: 359.9 µM
  kcat: 0.090 s⁻¹
  kcat/Km: 250 M⁻¹ s⁻¹
[3]
  Km: 506.3 µM
  kcat: 0.087 s⁻¹
  kcat/Km: 172 M⁻¹ s⁻¹
